Activity calls are given as the source filed them. The calls are words filed in the database; no cut-off is given here.
Assays:
[1] = target: Serine/threonine-protein kinase Sgk3 (Homo sapiens) (UniProt Q96BR1); conditions: Compound concentration 1000.0 nM
[2] = target: Tyrosine-protein kinase Yes (Homo sapiens) (UniProt P07947); conditions: Compound concentration 1000.0 nM
[3] = target: Cyclin-dependent kinase 4 (Homo sapiens) (UniProt P11802); conditions: Compound concentration 1000.0 nM
[4] = target: Histamine H2 receptor (Homo sapiens) (UniProt P25021); conditions: Compound concentration 10.0 uM
[5] = target: Cyclin-dependent kinase 3 (Homo sapiens) (UniProt Q00526); conditions: Compound concentration 1000.0 nM
[6] = target: Uncharacterized serine/threonine-protein kinase SBK3 (Homo sapiens) (UniProt P0C264); conditions: Compound concentration 1000.0 nM
[7] = system: Receptor-type tyrosine-protein kinase FLT3 (Homo sapiens), P36888 [D835V]; conditions: Compound concentration 1000.0 nM
[8] = system: Tyrosine-protein kinase ABL1 (Homo sapiens), P00519 [E255K]; conditions: Compound concentration 1000.0 nM
[9] = target: Muscarinic acetylcholine receptor M3 (Homo sapiens) (UniProt P20309); conditions: Compound concentration 10.0 uM
[10] = target: Wee1-like protein kinase (Homo sapiens) (UniProt P30291); conditions: Compound concentration 1000.0 nM
[11] = target: Proto-oncogene tyrosine-protein kinase receptor Ret (Homo sapiens) (UniProt P07949); conditions: Compound concentration 1000.0 nM
[12] = target: Calcitonin-gene-related peptide receptor, CALCRL/RAMP1 (Homo sapiens) (UniProt O60894+Q16602); assay: CGRP (h) Eurofins-Cerep binding assay; type: protein-complex assay; design: ligand concentration 0.03 nM; conditions: filed as agonist, Compound concentration 10.0 uM
[13] = target: Casein kinase I isoform epsilon (Homo sapiens) (UniProt P49674); conditions: Compound concentration 1000.0 nM
Sequence of Casein kinase I isoform epsilon (Homo sapiens) (P49674 whole entry, looked up, canonical isoform): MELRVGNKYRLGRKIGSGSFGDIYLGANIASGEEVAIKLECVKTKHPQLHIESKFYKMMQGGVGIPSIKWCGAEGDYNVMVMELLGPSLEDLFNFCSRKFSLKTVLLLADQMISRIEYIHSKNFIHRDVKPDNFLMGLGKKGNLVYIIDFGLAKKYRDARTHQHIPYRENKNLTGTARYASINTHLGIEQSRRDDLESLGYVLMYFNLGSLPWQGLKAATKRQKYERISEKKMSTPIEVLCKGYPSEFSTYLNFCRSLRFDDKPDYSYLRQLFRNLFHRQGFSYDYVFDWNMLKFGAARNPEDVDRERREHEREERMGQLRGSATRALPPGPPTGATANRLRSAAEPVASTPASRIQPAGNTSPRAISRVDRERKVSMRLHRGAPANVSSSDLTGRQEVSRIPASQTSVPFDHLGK

[14] = system: Mast/stem cell growth factor receptor Kit (Homo sapiens), P10721 [A829P]; conditions: Compound concentration 1000.0 nM
[15] = target: Receptor-interacting serine/threonine-protein kinase 2 (Homo sapiens) (UniProt O43353); conditions: Compound concentration 1000.0 nM
[16] = target: Dual specificity tyrosine-phosphorylation-regulated kinase 2 (Homo sapiens) (UniProt Q92630); conditions: Compound concentration 1000.0 nM
Sequence of Dual specificity tyrosine-phosphorylation-regulated kinase 2 (Homo sapiens) (Q92630 whole entry): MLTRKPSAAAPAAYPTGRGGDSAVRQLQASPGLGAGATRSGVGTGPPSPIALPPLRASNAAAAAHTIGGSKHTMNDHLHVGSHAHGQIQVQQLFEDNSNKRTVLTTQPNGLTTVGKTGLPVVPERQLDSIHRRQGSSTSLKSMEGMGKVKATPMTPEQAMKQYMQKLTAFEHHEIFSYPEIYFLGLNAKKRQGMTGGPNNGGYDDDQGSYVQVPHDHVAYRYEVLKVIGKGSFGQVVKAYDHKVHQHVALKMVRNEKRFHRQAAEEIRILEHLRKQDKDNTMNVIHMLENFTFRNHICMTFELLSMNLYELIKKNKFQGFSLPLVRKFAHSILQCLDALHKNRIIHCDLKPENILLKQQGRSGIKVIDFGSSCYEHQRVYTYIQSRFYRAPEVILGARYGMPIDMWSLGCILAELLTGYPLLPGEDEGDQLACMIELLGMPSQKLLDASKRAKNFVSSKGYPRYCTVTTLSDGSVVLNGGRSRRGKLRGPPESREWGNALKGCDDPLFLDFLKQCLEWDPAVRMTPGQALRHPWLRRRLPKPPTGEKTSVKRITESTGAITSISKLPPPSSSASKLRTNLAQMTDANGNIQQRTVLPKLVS

[17] = system: Mast/stem cell growth factor receptor Kit (Homo sapiens), P10721 [D816H]; conditions: Compound concentration 1000.0 nM
[18] = system: Phosphatidylinositol 4,5-bisphosphate 3-kinase catalytic subunit alpha isoform (Homo sapiens), P42336 [C420R]; conditions: Compound concentration 1000.0 nM
[19] = system: Proto-oncogene tyrosine-protein kinase receptor Ret (Homo sapiens), P07949 [M918T]; conditions: Compound concentration 1000.0 nM
[20] = target: Homeodomain-interacting protein kinase 4 (Homo sapiens) (UniProt Q8NE63); conditions: Compound concentration 1000.0 nM
[21] = target: Serine/threonine-protein kinase MRCK alpha (Homo sapiens) (UniProt Q5VT25); conditions: Compound concentration 1000.0 nM
Sequence of Serine/threonine-protein kinase MRCK alpha (Homo sapiens) (Q5VT25 whole entry): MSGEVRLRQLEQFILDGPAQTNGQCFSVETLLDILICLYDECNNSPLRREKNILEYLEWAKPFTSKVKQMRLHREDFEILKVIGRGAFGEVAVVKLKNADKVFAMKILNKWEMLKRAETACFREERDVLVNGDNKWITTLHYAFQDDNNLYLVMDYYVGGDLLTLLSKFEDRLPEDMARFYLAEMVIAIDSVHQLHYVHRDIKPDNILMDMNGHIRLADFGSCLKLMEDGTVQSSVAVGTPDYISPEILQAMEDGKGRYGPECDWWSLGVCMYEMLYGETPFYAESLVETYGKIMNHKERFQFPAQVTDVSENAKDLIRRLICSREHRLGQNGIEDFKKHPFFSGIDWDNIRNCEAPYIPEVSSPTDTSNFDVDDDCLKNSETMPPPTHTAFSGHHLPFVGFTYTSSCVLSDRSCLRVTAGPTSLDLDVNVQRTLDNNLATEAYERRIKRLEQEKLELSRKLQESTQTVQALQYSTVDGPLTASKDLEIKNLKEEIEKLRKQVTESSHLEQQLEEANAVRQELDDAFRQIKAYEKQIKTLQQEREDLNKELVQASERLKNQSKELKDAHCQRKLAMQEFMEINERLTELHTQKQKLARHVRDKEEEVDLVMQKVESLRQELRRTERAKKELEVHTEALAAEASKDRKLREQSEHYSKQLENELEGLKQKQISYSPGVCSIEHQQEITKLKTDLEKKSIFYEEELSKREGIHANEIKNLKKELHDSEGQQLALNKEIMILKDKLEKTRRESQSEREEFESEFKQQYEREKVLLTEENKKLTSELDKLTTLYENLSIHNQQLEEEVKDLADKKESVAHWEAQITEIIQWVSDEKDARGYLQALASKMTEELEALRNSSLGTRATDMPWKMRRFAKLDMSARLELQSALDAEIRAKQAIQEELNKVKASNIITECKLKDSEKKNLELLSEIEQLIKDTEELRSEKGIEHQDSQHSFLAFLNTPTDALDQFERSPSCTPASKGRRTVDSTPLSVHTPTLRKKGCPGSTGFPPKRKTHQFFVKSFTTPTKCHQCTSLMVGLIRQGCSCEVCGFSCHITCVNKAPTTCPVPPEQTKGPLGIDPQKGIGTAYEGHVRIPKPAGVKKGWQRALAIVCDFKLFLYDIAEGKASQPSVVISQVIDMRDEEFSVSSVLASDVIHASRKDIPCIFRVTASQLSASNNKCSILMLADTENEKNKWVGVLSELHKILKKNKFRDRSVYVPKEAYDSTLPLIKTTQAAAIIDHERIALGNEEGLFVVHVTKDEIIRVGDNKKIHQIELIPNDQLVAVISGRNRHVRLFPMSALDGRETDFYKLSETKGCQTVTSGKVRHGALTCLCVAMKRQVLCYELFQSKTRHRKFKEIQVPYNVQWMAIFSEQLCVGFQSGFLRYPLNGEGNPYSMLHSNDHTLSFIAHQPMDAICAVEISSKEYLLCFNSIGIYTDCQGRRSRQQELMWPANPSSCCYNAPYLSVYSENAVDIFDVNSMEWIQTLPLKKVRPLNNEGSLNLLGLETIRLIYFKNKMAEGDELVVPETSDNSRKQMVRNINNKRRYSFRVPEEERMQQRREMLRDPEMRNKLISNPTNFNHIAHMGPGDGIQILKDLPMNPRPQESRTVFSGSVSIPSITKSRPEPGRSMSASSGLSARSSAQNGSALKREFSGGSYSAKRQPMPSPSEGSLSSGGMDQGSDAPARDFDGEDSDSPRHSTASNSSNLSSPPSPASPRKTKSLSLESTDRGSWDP

[22] = target: Serine/threonine-protein kinase Nek11 (Homo sapiens) (UniProt Q8NG66); conditions: Compound concentration 1000.0 nM
[23] = target: Vascular endothelial growth factor receptor 3 (Homo sapiens) (UniProt P35916); conditions: Compound concentration 1000.0 nM
[24] = target: Mitogen-activated protein kinase 11 (Homo sapiens) (UniProt Q15759); conditions: Compound concentration 1000.0 nM
[25] = target: Death-associated protein kinase 1 (Homo sapiens) (UniProt P53355); conditions: Compound concentration 1000.0 nM
Sequence of Death-associated protein kinase 1 (Homo sapiens) (P53355 whole entry, looked up): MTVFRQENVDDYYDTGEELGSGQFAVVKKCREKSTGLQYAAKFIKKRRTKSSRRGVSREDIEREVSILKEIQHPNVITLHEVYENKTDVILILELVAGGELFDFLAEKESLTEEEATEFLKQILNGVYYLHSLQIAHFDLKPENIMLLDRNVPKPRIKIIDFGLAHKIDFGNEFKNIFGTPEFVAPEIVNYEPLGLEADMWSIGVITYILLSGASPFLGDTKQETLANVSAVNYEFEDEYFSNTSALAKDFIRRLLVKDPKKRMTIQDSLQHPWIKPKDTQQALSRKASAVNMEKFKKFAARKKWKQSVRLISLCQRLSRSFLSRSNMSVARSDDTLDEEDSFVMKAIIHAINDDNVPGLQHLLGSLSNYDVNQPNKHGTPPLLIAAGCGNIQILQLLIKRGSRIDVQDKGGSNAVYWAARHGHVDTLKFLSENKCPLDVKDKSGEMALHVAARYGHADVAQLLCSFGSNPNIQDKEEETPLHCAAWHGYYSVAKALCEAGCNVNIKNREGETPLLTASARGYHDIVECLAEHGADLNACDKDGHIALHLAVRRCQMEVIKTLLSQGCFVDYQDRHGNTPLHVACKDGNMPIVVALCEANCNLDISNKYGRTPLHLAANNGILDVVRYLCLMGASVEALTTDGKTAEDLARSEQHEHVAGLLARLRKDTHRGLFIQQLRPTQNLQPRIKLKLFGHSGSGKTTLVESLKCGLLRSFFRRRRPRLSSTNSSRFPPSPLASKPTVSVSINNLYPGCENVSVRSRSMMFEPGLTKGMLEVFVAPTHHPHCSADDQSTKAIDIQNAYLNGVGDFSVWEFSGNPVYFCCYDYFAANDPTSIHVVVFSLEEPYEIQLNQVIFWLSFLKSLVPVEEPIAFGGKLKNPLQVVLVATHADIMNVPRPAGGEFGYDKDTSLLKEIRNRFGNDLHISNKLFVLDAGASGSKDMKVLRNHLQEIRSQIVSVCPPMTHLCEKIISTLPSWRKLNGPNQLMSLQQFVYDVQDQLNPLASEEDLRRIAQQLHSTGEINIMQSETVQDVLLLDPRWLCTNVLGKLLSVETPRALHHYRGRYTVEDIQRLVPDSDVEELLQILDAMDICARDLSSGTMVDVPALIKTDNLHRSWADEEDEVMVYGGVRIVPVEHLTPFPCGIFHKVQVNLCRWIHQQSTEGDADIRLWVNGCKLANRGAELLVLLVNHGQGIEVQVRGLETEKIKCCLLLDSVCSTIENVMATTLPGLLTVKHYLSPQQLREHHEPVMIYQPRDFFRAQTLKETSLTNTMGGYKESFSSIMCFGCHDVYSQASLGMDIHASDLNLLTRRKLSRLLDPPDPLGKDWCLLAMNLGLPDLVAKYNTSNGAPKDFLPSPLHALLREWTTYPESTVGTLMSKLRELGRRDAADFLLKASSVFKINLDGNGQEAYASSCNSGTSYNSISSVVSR

[26] = target: Cystic fibrosis transmembrane conductance regulator (Homo sapiens, UniProt P13569); assay: Plasma membrane-expressed enzyme acceptor protein (EA-MEM) assay
[27] = target: Ephrin type-A receptor 4 (Homo sapiens) (UniProt P54764); conditions: Compound concentration 1000.0 nM
[28] = target: Mitogen-activated protein kinase kinase kinase 1 (Homo sapiens) (UniProt Q13233); conditions: Compound concentration 1000.0 nM
[29] = target: 5-hydroxytryptamine receptor 2A (Homo sapiens) (UniProt P28223); assay: 5-HT2A (h) Eurofins-Cerep binding assay; design: ligand concentration 0.5 nM; conditions: filed as antagonist, Compound concentration 10.0 uM
[30] = target: Mitogen-activated protein kinase 8 (Homo sapiens) (UniProt P45983); conditions: Compound concentration 1000.0 nM
[31] = target: D(2) dopamine receptor (Homo sapiens) (UniProt P14416); assay: D2S (h) Eurofins-Cerep binding assay; design: ligand concentration 0.3 nM; conditions: filed as antagonist, Compound concentration 10.0 uM
[32] = target: Tyrosine-protein kinase Tec (Homo sapiens) (UniProt P42680); conditions: Compound concentration 1000.0 nM
Sequence of Tyrosine-protein kinase Tec (Homo sapiens) (P42680 whole entry): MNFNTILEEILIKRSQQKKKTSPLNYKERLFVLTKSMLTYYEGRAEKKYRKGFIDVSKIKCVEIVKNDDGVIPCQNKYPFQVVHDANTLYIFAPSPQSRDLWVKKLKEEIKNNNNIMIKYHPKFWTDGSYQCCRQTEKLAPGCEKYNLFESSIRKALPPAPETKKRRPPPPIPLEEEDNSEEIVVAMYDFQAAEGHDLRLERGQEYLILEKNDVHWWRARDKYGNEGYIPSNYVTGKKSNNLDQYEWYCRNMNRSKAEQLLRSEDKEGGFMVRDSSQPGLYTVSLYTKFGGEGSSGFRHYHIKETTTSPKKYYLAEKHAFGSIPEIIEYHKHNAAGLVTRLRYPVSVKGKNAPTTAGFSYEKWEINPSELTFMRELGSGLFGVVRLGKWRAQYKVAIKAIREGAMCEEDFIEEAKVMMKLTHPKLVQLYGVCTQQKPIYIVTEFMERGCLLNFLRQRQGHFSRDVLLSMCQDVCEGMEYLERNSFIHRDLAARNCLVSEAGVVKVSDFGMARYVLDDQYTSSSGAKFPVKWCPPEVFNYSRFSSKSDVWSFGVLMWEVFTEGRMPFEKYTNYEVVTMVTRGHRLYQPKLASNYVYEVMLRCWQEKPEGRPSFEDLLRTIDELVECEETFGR

[33] = target: Serine/threonine-protein kinase VRK2 (Homo sapiens) (UniProt Q86Y07); conditions: Compound concentration 1000.0 nM
[34] = target: Aurora kinase B (Homo sapiens) (UniProt Q96GD4); conditions: Compound concentration 1000.0 nM
[35] = target: 3-phosphoinositide-dependent protein kinase 1 (Homo sapiens) (UniProt O15530); conditions: Compound concentration 1000.0 nM
[36] = target: Ephrin type-B receptor 4 (Homo sapiens) (UniProt P54760); conditions: Compound concentration 1000.0 nM
[37] = target: ALK tyrosine kinase receptor (Homo sapiens) (UniProt Q9UM73); conditions: Compound concentration 1000.0 nM
[38] = target: Mitogen-activated protein kinase kinase kinase kinase 2 (Homo sapiens) (UniProt Q12851); conditions: Compound concentration 1000.0 nM
[39] = target: Cannabinoid receptor 2 (Homo sapiens) (UniProt P34972); assay: CB2 (h) Eurofins-Cerep binding assay; design: ligand concentration 0.8 nM; conditions: filed as agonist, Compound concentration 10.0 uM

Structure (SMILES): COc1ccc2c(c1)O[C@@H](c1ccc(OC)c(OC)c1)C[C@H]2NC(=O)C1(c2ccc3c(c2)OC(F)(F)O3)CC1 [A-1596586]
- residual activity [1]: 84%
- residual activity [2]: 100%
- residual activity [3]: 91%
- inhibition [4]: -6.08%
- residual activity [5]: 100%
- residual activity [6]: 100%
- residual activity [7]: 99%
- residual activity [8]: 80%
- inhibition [9]: 1.13%
- residual activity [10]: 99%
- residual activity [11]: 99%
- % Inhibition of Control Specific Binding (Mean n=2) [12]: -7%
- residual activity [13]: 100%
- residual activity [14]: 75%
- residual activity [15]: 94%
- residual activity [16]: 75%
- residual activity [17]: 94%
- residual activity [18]: 86%
- residual activity [19]: 90%
- residual activity [20]: 51%
- residual activity [21]: 90%
- residual activity [22]: 83%
- residual activity [23]: 91%
- residual activity [24]: 92%
- residual activity [25]: 99%
- EC50 [26]: 35 nM (active)
- residual activity [27]: 100%
- residual activity [28]: 77%
- % Inhibition of Control Specific Binding (Mean n=2) [29]: -7.4%
- residual activity [30]: 91%
- % Inhibition of Control Specific Binding (Mean n=2) [31]: 27.7%
- residual activity [32]: 89%
- residual activity [33]: 67%
- residual activity [34]: 84%
- residual activity [35]: 100%
- residual activity [36]: 91%
- residual activity [37]: 100%
- residual activity [38]: 87%
- % Inhibition of Control Specific Binding (Mean n=2) [39]: 30.2%

Structure (SMILES): COc1ccc2c(c1)O[C@H](c1ccc(OC)c(OC)c1)C[C@@H]2NC(=O)C1(c2ccc3c(c2)OC(F)(F)O3)CC1 [A-1596584]
- residual activity [1]: 100%
- residual activity [2]: 97%
- residual activity [3]: 96%
- inhibition [4]: -0.89%
- residual activity [5]: 100%
- residual activity [6]: 100%
- residual activity [7]: 92%
- residual activity [8]: 90%
- inhibition [9]: 2.35%
- residual activity [10]: 100%
- residual activity [11]: 100%
- % Inhibition of Control Specific Binding (Mean n=2) [12]: -2.5%
- residual activity [13]: 100%
- residual activity [14]: 69%
- residual activity [15]: 100%
- residual activity [16]: 100%
- residual activity [17]: 100%
- residual activity [18]: 91%
- residual activity [19]: 99%
- residual activity [20]: 91%
- residual activity [21]: 100%
- residual activity [22]: 88%
- residual activity [23]: 97%
- residual activity [24]: 93%
- residual activity [25]: 100%
- EC50 [26]: 3900 nM (not active)
- residual activity [27]: 91%
- residual activity [28]: 100%
- % Inhibition of Control Specific Binding (Mean n=2) [29]: -3.7%
- residual activity [30]: 96%
- % Inhibition of Control Specific Binding (Mean n=2) [31]: 18.7%
- residual activity [32]: 100%
- residual activity [33]: 82%
- residual activity [34]: 98%
- residual activity [35]: 100%
- residual activity [36]: 88%
- residual activity [37]: 100%
- residual activity [38]: 99%
- % Inhibition of Control Specific Binding (Mean n=2) [39]: 73.7%
